Where a SMILES comes first, the peptide text is derived from it. Bridges are numbered along the chain shown (N, C = ends). [ ]: non-standard residue; d: D form. The star is where a group is joined. X3 = O=C(O)CN1CCN(CC(=O)O)CCN(CC(=O)N[C@@H](CS(=O)(=O)O)C(=O)N[C@@H](CCCCNC(=O)CCCc2ccc(Br)cc2)C(=O)*)CCN(CC(=O)O)CC1; 2Nal = N[C@@H](Cc1ccc2ccccc2c1)C(=O)O; Lys(iPr) = CC(C)NCCCC[C@H](N)C(=O)O
Assay: in vivo
Parameters: species or system mice
Settings: male, mouse, iv, total radioactivity
How it was run: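 Male NRG mice bearing subcutaneous Z138 mantle cell lymphoma xenografts (5×10^6 cells, grown to 200-300 mm^3) injected intravenously under isoflurane with 68Ga-labelled tracers. Harvested tissues weighed and gamma-counted; uptake expressed as % ID/g.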

[1] = NOD.Cg-Rag1tm1Mom Il2rgtm1Wjl/SzJ (NRG), Biodistribution: Adrenals
[2] = NOD.Cg-Rag1tm1Mom Il2rgtm1Wjl/SzJ (NRG), Biodistribution: Blood
[3] = NOD.Cg-Rag1tm1Mom Il2rgtm1Wjl/SzJ (NRG), Biodistribution: Bone
[4] = NOD.Cg-Rag1tm1Mom Il2rgtm1Wjl/SzJ (NRG), Biodistribution: Brain
[5] = NOD.Cg-Rag1tm1Mom Il2rgtm1Wjl/SzJ (NRG), Biodistribution: Heart
[6] = NOD.Cg-Rag1tm1Mom Il2rgtm1Wjl/SzJ (NRG), Biodistribution: Kidneys
[7] = NOD.Cg-Rag1tm1Mom Il2rgtm1Wjl/SzJ (NRG), Biodistribution: Liver
[8] = NOD.Cg-Rag1tm1Mom Il2rgtm1Wjl/SzJ (NRG), Biodistribution: Lungs
[9] = NOD.Cg-Rag1tm1Mom Il2rgtm1Wjl/SzJ (NRG), Biodistribution: Muscle
[10] = NOD.Cg-Rag1tm1Mom Il2rgtm1Wjl/SzJ (NRG), Biodistribution: Pancreas
[11] = NOD.Cg-Rag1tm1Mom Il2rgtm1Wjl/SzJ (NRG), Biodistribution: Small Intestine
[12] = NOD.Cg-Rag1tm1Mom Il2rgtm1Wjl/SzJ (NRG), Biodistribution: Spleen
[13] = NOD.Cg-Rag1tm1Mom Il2rgtm1Wjl/SzJ (NRG), Biodistribution: Stomach
[14] = NOD.Cg-Rag1tm1Mom Il2rgtm1Wjl/SzJ (NRG), Biodistribution: Testes
[15] = NOD.Cg-Rag1tm1Mom Il2rgtm1Wjl/SzJ (NRG), Biodistribution: Z138 Tumor
[16] = NOD.Cg-Rag1tm1Mom Il2rgtm1Wjl/SzJ (NRG), Ratio Tumor-to-Blood
[17] = NOD.Cg-Rag1tm1Mom Il2rgtm1Wjl/SzJ (NRG), Ratio Tumor-to-Bone
[18] = NOD.Cg-Rag1tm1Mom Il2rgtm1Wjl/SzJ (NRG), Ratio Tumor-to-Kidney
[19] = NOD.Cg-Rag1tm1Mom Il2rgtm1Wjl/SzJ (NRG), Ratio Tumor-to-Muscle
[20] = NOD.Cg-Rag1tm1Mom Il2rgtm1Wjl/SzJ (NRG), Ratio Tumor-to-Pancreas
[21] = NOD.Cg-Rag1tm1Momll2rgtm1Wjl/SzJ (NRG), Biodistribution: Blood
[22] = NOD.Cg-Rag1tm1Momll2rgtm1Wjl/SzJ (NRG), Biodistribution: Stomach
[23] = NOD.Cg-Rag1tm1Momll2rgtm1Wjl/SzJ (NRG), Biodistribution: Testes
[24] = NOD.Cg-Rag1tm1Momll2rgtm1Wjl/SzJ (NRG), Ratio Tumor-to-Bone
[25] = NOD.Cg-Rag1tm1Momll2rgtm1Wjl/SzJ (NRG), Ratio Tumor-to-Kidney
[26] = NOD.Cg-Rag1tm1Momll2rgtm1Wjl/SzJ (NRG), Ratio Tumor-to-Muscle
[27] = NOD.Cg-Rag1tm1Momll2rgtm1Wjl/SzJ (NRG), Ratio Tumor-to-Pancreas

tissue uptake at 1 h [1]: 2.44 %ID/g | tissue uptake at 3 h [1]: 2.29 %ID/g | tissue uptake at 24 h [1]: 1.1 %ID/g | tissue uptake at 72 h [1]: 0.81 %ID/g | tissue uptake at 120 h [1]: 1.24 %ID/g | tissue uptake at 1 h [2]: 14.1 %ID/g | tissue uptake at 3 h [2]: 11.8 %ID/g | tissue uptake at 1 h [3]: 1.02 %ID/g | tissue uptake at 3 h [3]: 0.78 %ID/g | tissue uptake at 24 h [3]: 0.29 %ID/g | tissue uptake at 72 h [3]: 0.26 %ID/g | tissue uptake at 120 h [3]: 0.3 %ID/g | tissue uptake at 1 h [4]: 0.22 %ID/g | tissue uptake at 3 h [4]: 0.2 %ID/g | tissue uptake at 24 h [4]: 0.06 %ID/g | tissue uptake at 72 h [4]: 0.03 %ID/g | tissue uptake at 120 h [4]: 0.02 %ID/g | tissue uptake at 1 h [5]: 3.05 %ID/g | tissue uptake at 3 h [5]: 3.01 %ID/g | tissue uptake at 24 h [5]: 0.76 %ID/g | tissue uptake at 72 h [5]: 0.25 %ID/g | tissue uptake at 120 h [5]: 0.18 %ID/g | tissue uptake at 1 h [6]: 4.5 %ID/g | tissue uptake at 3 h [6]: 3.98 %ID/g | tissue uptake at 24 h [6]: 1.53 %ID/g | tissue uptake at 72 h [6]: 0.4 %ID/g | tissue uptake at 120 h [6]: 0.33 %ID/g | tissue uptake at 1 h [7]: 2.8 %ID/g | tissue uptake at 3 h [7]: 3.16 %ID/g | tissue uptake at 24 h [7]: 0.84 %ID/g | tissue uptake at 72 h [7]: 0.44 %ID/g | tissue uptake at 120 h [7]: 0.19 %ID/g | tissue uptake at 1 h [8]: 8.78 %ID/g | tissue uptake at 3 h [8]: 6.6 %ID/g | tissue uptake at 24 h [8]: 1.9 %ID/g | tissue uptake at 72 h [8]: 0.68 %ID/g | tissue uptake at 120 h [8]: 0.72 %ID/g | tissue uptake at 1 h [9]: 1.13 %ID/g | tissue uptake at 3 h [9]: 0.93 %ID/g | tissue uptake at 24 h [9]: 0.27 %ID/g | tissue uptake at 72 h [9]: 0.15 %ID/g | tissue uptake at 120 h [9]: 0.08 %ID/g | tissue uptake at 1 h [10]: 1.59 %ID/g | tissue uptake at 3 h [10]: 1.25 %ID/g | tissue uptake at 24 h [10]: 1.38 %ID/g | tissue uptake at 72 h [10]: 0.12 %ID/g | tissue uptake at 120 h [10]: 0.23 %ID/g | tissue uptake at 1 h [11]: 1.16 %ID/g | tissue uptake at 3 h [11]: 1.02 %ID/g | tissue uptake at 24 h [11]: 0.53 %ID/g | tissue uptake at 72 h [11]: 0.11 %ID/g | tissue uptake at 120 h [11]: 0.08 %ID/g | tissue uptake at 1 h [12]: 1.92 %ID/g | tissue uptake at 3 h [12]: 1.86 %ID/g | tissue uptake at 24 h [12]: 1.12 %ID/g | tissue uptake at 72 h [12]: 0.95 %ID/g | tissue uptake at 120 h [12]: 0.77 %ID/g | tissue uptake at 1 h [13]: 0.52 %ID/g | tissue uptake at 3 h [13]: 0.71 %ID/g | tissue uptake at 1 h [14]: 1.78 %ID/g | tissue uptake at 3 h [14]: 2.81 %ID/g | tissue uptake at 1 h [15]: 5.94 %ID/g | tissue uptake at 3 h [15]: 15.4 %ID/g | tissue uptake at 24 h [15]: 27.4 %ID/g | tissue uptake at 72 h [15]: 23.6 %ID/g | tissue uptake at 120 h [15]: 23.6 %ID/g | tissue to tissue ratio at 1 h [16]: 0.42 | tissue to tissue ratio at 3 h [16]: 1.3 | tissue to tissue ratio at 24 h [16]: 9.65 | tissue to tissue ratio at 72 h [16]: 53.9 | tissue to tissue ratio at 120 h [16]: 71.5 | tissue to tissue ratio at 1 h [17]: 3.63 | tissue to tissue ratio at 3 h [17]: 10.5 | tissue to tissue ratio at 1 h [18]: 1.32 | tissue to tissue ratio at 3 h [18]: 3.93 | tissue to tissue ratio at 1 h [19]: 5.29 | tissue to tissue ratio at 3 h [19]: 16.7 | tissue to tissue ratio at 72 h [19]: 234 | tissue to tissue ratio at 1 h [20]: 3.77 | tissue to tissue ratio at 3 h [20]: 12.6 | tissue uptake at 24 h [21]: 2.84 %ID/g | tissue uptake at 72 h [21]: 0.45 %ID/g | tissue uptake at 120 h [21]: 0.36 %ID/g | tissue uptake at 24 h [22]: 0.41 %ID/g | tissue uptake at 72 h [22]: 0.13 %ID/g | tissue uptake at 120 h [22]: 0.07 %ID/g | tissue uptake at 24 h [23]: 1.01 %ID/g | tissue uptake at 72 h [23]: 0.65 %ID/g | tissue uptake at 120 h [23]: 0.56 %ID/g | tissue to tissue ratio at 24 h [24]: 45.3 | tissue to tissue ratio at 72 h [24]: 44.3 | tissue to tissue ratio at 120 h [24]: 27 | tissue to tissue ratio at 24 h [25]: 18 | tissue to tissue ratio at 72 h [25]: 60.3 | tissue to tissue ratio at 120 h [25]: 75.5 | tissue to tissue ratio at 24 h [26]: 102 | tissue to tissue ratio at 120 h [26]: 357 | tissue to tissue ratio at 24 h [27]: 70.9 | tissue to tissue ratio at 72 h [27]: 206 | tissue to tissue ratio at 120 h [27]: 257
Compound: CC(C)NCCCC[C@H](NC(=O)[C@H]1CCC(=O)N[C@@H](CCCCNC(=O)[C@H](CCCCNC(=O)CCCc2ccc(Br)cc2)NC(=O)[C@H](CS(=O)(=O)O)NC(=O)CN2CCN(CC(=O)O)CCN(CC(=O)O)CCN(CC(=O)O)CC2)C(=O)N[C@@H](Cc2ccc(O)cc2)C(=O)N[C@@H](CCCCNC(C)C)C(=O)N[C@H](CCCNC(=N)N)C(=O)N[C@@H](Cc2ccc3ccccc3c2)C(=O)N[C@H](C)C(=O)N1)C(N)=O [[^177Lu]Lu-BL34L20, metal not drawn] (K(X3)Y[Lys(iPr)][dR][2Nal][dA][dE][Lys(iPr)]-NH2; lactam N-7)

Source: patent publication US20250242064A1, “CXCR4-TARGETING COMPOUNDS, AND METHODS OF MAKING AND USING THE SAME” (PROVINCIAL HEALTH SERVICES AUTHORITY, priority 2022, published 2025)
